System: HT-29 human colon cancer cells
Test: Cytotoxicity against HT-29 human colon cancer cells
Type: cell-based
Details: HT-29 versus CCD-112CoN

For CCCC/C=C/C=C/C=C/[C@@H]1CC[C@@H](O)[C@H](C)N1C [Compound 1, (2S,3R,6S)-6-((1E,3E,5E)-deca-1,3,5-trien-1-yl)-1,2-dimethylpiperidin-3-ol], which “selectivity ratio for cancerous colon cells versus normal colon cells” value is on record?
Its value is “approximately 4”.

— PMC3580017 (Journal of natural products, 2013)
